According to article PMC9226124, “Macrocycle-stabilization of its interaction with 14-3-3 increases plasma membrane localization and activity of CFTR” (Nature Communications, 2022):
Values joined by “and” are separate entries in the source; they are usually repeats but may differ in a detail not shown here. Equal entries are not always repeated.

Legend:
[1] = target: T1, 14-3-3β/CFTRpS753pS768 complex (Homo sapiens, UniProt P13569+P31946); experiment: Dose-response fluorescence polarization (FP) assay, compound titration; assay type: binding; settings: for Polarization, background subtracted: 14-3-3 10 μM, peptide 100 nM, replicates; for FP signal: With 14-3-3
T1 construct: His6 (cleaved yes); made in house; peptide synthetic
Procedure: The 14-3-3β concentration used for the FP screening assay was 10 μM (dashed line). c HTS FP assay of the Cyclenium library. The samples contain 100 nM of FITC-CFTR_pS753pS768 peptide, 10 μM 14-3-3β, and 50 μM compound. FC-A (100 µM) was added as a positive control and DMSO as the negative control. Hit compounds are defined as a polarization increase which is higher than 20% of the response of FC-A. Red squares are compounds that appeared positive in the negative control without 14-3-3. […] Background polarization was subtracted from all values, n = 3 technical replicates. Compounds selected for further analysis are indicated with an asterisk. e Polarization in the absence of 14-3-3. […] Source data are provided as a Source Data file. […]
(§1) The FITC-labeled peptides were dissolved in FP buffer (10 mM HEPES pH 7.4, 150 mM NaCl, 0.1% Tween20, 1 mg/mL BSA) to a final concentration of 100 nM or 10 nM. For the dose-response assays, a 14-3-3β concentration of 10 μM was used while titrating the compounds in a two-times dilution series and, for the other assays, a dilution series of 14-3-3β was made with constant concentration of compound. The dilution series were made in 384 Corning Black Round Bottom well plates and their polarization was measured with a Tecan Infinite F500 plate reader (ex. = 485 nm, em. = 535 nm). The method of fitting of the curves was: “log(agonist) vs. response – Variable slope (four parameters)” from GraphPad Prism. The equation is Y = Bottom + (Top-Bottom)/(1 + 10^((LogEC50-X)*HillSlope)).

[2] = target: T2, FITC-labeled CFTRpS753pS768 peptide (no 14-3-3) (Homo sapiens, UniProt P13569); experiment: Dose-response FP control assay in the absence of 14-3-3; assay type: binding; settings: for Polarization in the absence of 14-3-3, background subtracted: replicates; for FP signal: No 14-3-3
T2 construct: made in house; host or cells: synthetic peptide
Procedure: The 14-3-3β concentration used for the FP screening assay was 10 μM (dashed line). c HTS FP assay of the Cyclenium library. The samples contain 100 nM of FITC-CFTR_pS753pS768 peptide, 10 μM 14-3-3β, and 50 μM compound. FC-A (100 µM) was added as a positive control and DMSO as the negative control. Hit compounds are defined as a polarization increase which is higher than 20% of the response of FC-A. Red squares are compounds that appeared positive in the negative control without 14-3-3. […] Background polarization was subtracted from all values, n = 3 technical replicates. Compounds selected for further analysis are indicated with an asterisk. e Polarization in the absence of 14-3-3. […] Source data are provided as a Source Data file.
as §1

T2 sequence (P13569 747-774 limits assumed): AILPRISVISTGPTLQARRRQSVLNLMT
T1 sequence (P31946 whole entry): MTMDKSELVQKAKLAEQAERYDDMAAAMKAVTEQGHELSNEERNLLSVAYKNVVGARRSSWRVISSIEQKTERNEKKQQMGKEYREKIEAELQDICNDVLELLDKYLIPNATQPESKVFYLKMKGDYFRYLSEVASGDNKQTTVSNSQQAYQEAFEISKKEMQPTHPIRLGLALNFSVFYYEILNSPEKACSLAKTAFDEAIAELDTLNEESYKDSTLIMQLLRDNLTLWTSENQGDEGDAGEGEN

NCCCC1NCc2ccccc2Sc2ccccc2CNC(=O)C(Cc2c[nH]c3ccccc23)NC(=O)C(Cc2ccccc2)NC1=O (stereo not drawn) [CY000970]
Polarization, background subtracted ([1]; compound 7.8125e-7 M): 3.967 and 7.467 and 1.967 | Polarization, background subtracted ([1]; compound 1.5625e-6 M): 3.067 and 3.467 and 2.467 | Polarization, background subtracted ([1]; compound 3.125e-6 M): 6.467 and 6.067 and 3.767 | Polarization, background subtracted ([1]; compound 6.25e-6 M): 9.367 and 10.5667 and 10.2667 | Polarization, background subtracted ([1]; compound 1.25e-5 M): 21.1667 and 31.0667 and 29.9667 | Polarization, background subtracted ([1]; compound 2.5e-5 M): 47.8667 and 51.0667 and 48.4667 | Polarization, background subtracted ([1]; compound 5e-5 M): 75.6667 and 90.6667 and 83.6667 | Polarization, background subtracted ([1]; compound 0.0001 M): 125.667 and 143.267 and 127.367 | Polarization in the absence of 14-3-3, background subtracted ([2]; compound 7.8125e-7 M): 1.267 and 1.067 and 0.9667 | Polarization in the absence of 14-3-3, background subtracted ([2]; compound 1.5625e-6 M): 0.5667 and 0.1667 and -0.03333 | Polarization in the absence of 14-3-3, background subtracted ([2]; compound 3.125e-6 M): 1.367 and 2.667 and 1.467 | Polarization in the absence of 14-3-3, background subtracted ([2]; compound 6.25e-6 M): 1.367 and 2.167 and 2.967 | Polarization in the absence of 14-3-3, background subtracted ([2]; compound 1.25e-5 M): 6.867 (2×) and 8.667 | Polarization in the absence of 14-3-3, background subtracted ([2]; compound 2.5e-5 M): 12.7667 and 12.6667 and 13.5667 | Polarization in the absence of 14-3-3, background subtracted ([2]; compound 5e-5 M): 29.6667 and 26.2667 and 32.2667 | Polarization in the absence of 14-3-3, background subtracted ([2]; compound 0.0001 M): 49.4667 and 44.0667 and 55.9667

NCCCC1NC(=O)C(Cc2ccc(-c3ccccc3)cc2)NCc2ccccc2Sc2ccccc2CNC1=O (stereo not drawn) [CY001110]
Polarization, background subtracted ([1]; compound 7.8125e-7 M): -1.033 and -2.233 and -1.933 | Polarization, background subtracted ([1]; compound 1.5625e-6 M): -4.033 and -5.333 and -2.333 | Polarization, background subtracted ([1]; compound 3.125e-6 M): -5.033 (2×) and -4.933 | Polarization, background subtracted ([1]; compound 6.25e-6 M): -4.133 and -2.733 and -3.633 | Polarization, background subtracted ([1]; compound 1.25e-5 M): 1.867 and 3.867 and 0.9667 | Polarization, background subtracted ([1]; compound 2.5e-5 M): 13.4667 and 18.8667 and 13.1667 | Polarization, background subtracted ([1]; compound 5e-5 M): 40.8667 and 54.6667 and 41.6667 | Polarization, background subtracted ([1]; compound 0.0001 M): 97.2667 and 108.167 and 99.8667 | Polarization in the absence of 14-3-3, background subtracted ([2]; compound 7.8125e-7 M): 0.06667 and 0.2667 and -0.03333 | Polarization in the absence of 14-3-3, background subtracted ([2]; compound 1.5625e-6 M): -0.3333 and -0.6333 (2×) | Polarization in the absence of 14-3-3, background subtracted ([2]; compound 3.125e-6 M): -0.6333 and 0.1667 and -0.7333 | Polarization in the absence of 14-3-3, background subtracted ([2]; compound 6.25e-6 M): -1.333 (2×) and -0.9333 | Polarization in the absence of 14-3-3, background subtracted ([2]; compound 1.25e-5 M): 0.06667 and -0.2333 and 0.1667 | Polarization in the absence of 14-3-3, background subtracted ([2]; compound 2.5e-5 M): -0.8333 and -1.033 and -0.2333 | Polarization in the absence of 14-3-3, background subtracted ([2]; compound 5e-5 M): -0.3333 and 0.2667 (2×) | Polarization in the absence of 14-3-3, background subtracted ([2]; compound 0.0001 M): 0.2667 and 1.467 and 3.067

N=C(N)NCCCC1NC(=O)C(CCC(N)=O)NC(=O)C(CCCNC(=N)N)NC(=O)C2CCCN2Cc2cccc(c2)-c2ccccc2CNC1=O (stereo not drawn) [CY002028]
Polarization, background subtracted ([1]; compound 7.8125e-7 M): 0.5667 and 1.267 and 0.8667 | Polarization, background subtracted ([1]; compound 1.5625e-6 M): 0.6667 and -0.1333 and 0.5667 | Polarization, background subtracted ([1]; compound 3.125e-6 M): 1.867 (2×) and 1.167 | Polarization, background subtracted ([1]; compound 6.25e-6 M): 2.367 and 1.667 and 2.767 | Polarization, background subtracted ([1]; compound 1.25e-5 M): 6.467 and 4.967 and 7.667 | Polarization, background subtracted ([1]; compound 2.5e-5 M): 12.9667 and 10.8667 and 4.867 | Polarization, background subtracted ([1]; compound 5e-5 M): 26.7667 and 22.8667 and 21.6667 | Polarization, background subtracted ([1]; compound 0.0001 M): 66.6667 and 58.4667 and 74.5667 | Polarization in the absence of 14-3-3, background subtracted ([2]; compound 7.8125e-7 M): 1.367 and 0.8667 and 0.4667 | Polarization in the absence of 14-3-3, background subtracted ([2]; compound 1.5625e-6 M): 0.5667 and -0.1333 and 0.4667 | Polarization in the absence of 14-3-3, background subtracted ([2]; compound 3.125e-6 M): 0.3667 (2×) and 0.6667 | Polarization in the absence of 14-3-3, background subtracted ([2]; compound 6.25e-6 M): 0.2667 and -0.5333 and 0.6667 | Polarization in the absence of 14-3-3, background subtracted ([2]; compound 1.25e-5 M): -1.933 and 1.467 and 1.267 | Polarization in the absence of 14-3-3, background subtracted ([2]; compound 2.5e-5 M): 1.367 (2×) and 1.467 | Polarization in the absence of 14-3-3, background subtracted ([2]; compound 5e-5 M): 3.267 and 3.467 and 4.467 | Polarization in the absence of 14-3-3, background subtracted ([2]; compound 0.0001 M): 7.867 and 8.067 and 8.267

N=C(N)NCCCC1NC(=O)C(Cc2ccccc2)NC(=O)C2(CCC(c3ccccc3)CC2)NCc2cccc(c2)-c2ccccc2CNC(=O)C(Cc2c[nH]c3ccccc23)NC1=O (stereo not drawn) [CY007183]
EC50 ([1]; 14-3-3β 10 μM, labeled CFTRpS753pS768 100 nM): False positive | FP signal ([1]; compound 338.6 pM): 2 | FP signal ([1]; compound 677.1 pM): 4 | FP signal ([1]; compound 1.35422e-9 M): 3 | FP signal ([1]; compound 2.70843e-9 M): 4 | FP signal ([1]; compound 5.41687e-9 M): 4 | FP signal ([1]; compound 1.08337e-8 M): 2 | FP signal ([1]; compound 2.16675e-8 M): 4 | FP signal ([1]; compound 4.3335e-8 M): 3 | FP signal ([1]; compound 8.66699e-8 M): 2 | FP signal ([1]; compound 1.7334e-7 M): 4 | FP signal ([1]; compound 3.4668e-7 M): 4 | FP signal ([1]; compound 6.93359e-7 M): 5 | FP signal ([1]; compound 1.38672e-6 M): 7 | FP signal ([1]; compound 2.77344e-6 M): 8 | FP signal ([1]; compound 5.54688e-6 M): 14 | FP signal ([1]; compound 1.10938e-5 M): 24 | FP signal ([1]; compound 2.21875e-5 M): 49 | FP signal ([1]; compound 4.4375e-5 M): 80 | FP signal ([1]; compound 8.875e-5 M): 145 | FP signal ([1]; compound 0.0001775 M): 211 | FP signal ([1]; compound 0.000355 M): 249 | FP signal ([1]; compound 0.00071 M): 275 | FP signal ([2]; compound 338.6 pM): 2 | FP signal ([2]; compound 677.1 pM): 4 | FP signal ([2]; compound 1.35422e-9 M): 3 | FP signal ([2]; compound 2.70843e-9 M): 4 | FP signal ([2]; compound 5.41687e-9 M): 4 | FP signal ([2]; compound 1.08337e-8 M): 2 | FP signal ([2]; compound 2.16675e-8 M): 4 | FP signal ([2]; compound 4.3335e-8 M): 3 | FP signal ([2]; compound 8.66699e-8 M): 2 | FP signal ([2]; compound 1.7334e-7 M): 4 | FP signal ([2]; compound 3.4668e-7 M): 4 | FP signal ([2]; compound 6.93359e-7 M): 5 | FP signal ([2]; compound 1.38672e-6 M): 7 | FP signal ([2]; compound 2.77344e-6 M): 8 | FP signal ([2]; compound 5.54688e-6 M): 14 | FP signal ([2]; compound 1.10938e-5 M): 24 | FP signal ([2]; compound 2.21875e-5 M): 49 | FP signal ([2]; compound 4.4375e-5 M): 80 | FP signal ([2]; compound 8.875e-5 M): 145 | FP signal ([2]; compound 0.0001775 M): 211 | FP signal ([2]; compound 0.000355 M): 249 | FP signal ([2]; compound 0.00071 M): 275
